“Also recorded” adds a separate entry of the source.
How the values were obtained:
[1] = test system: H727 pulmonary carcinoid cells; test: MTT cell proliferation assay, H727 cells; type: cell-based, human; conditions: 100 μM, to day 16, versus DMSO
Method: MTT Cell Proliferation Assay. […] Cells were trypsinized and plated in triplicate to 24 wells plates and allowed to adhere overnight. […] Cells were incubated and maintained with change of treatments at 2 days. Cell growth rates were analyzed after the addition of MTT reagent to the cultured cells following manufacturer's instructions. Absorbance was determined using spectrophotometer at a wave length of 540 nm.

[2] = test system: TT medullary thyroid cancer cells; test: MTT assay, TT cells; type: cell-based; conditions: 100 μM, versus DMSO
[3] = test system: Raf-1/MEK/ERK; test: Western analysis of Raf-1 pathway activation, BON cells; type: cell-based, human; conditions: 2 days
Method: (§1) H727 and BON cells were plated at 50-60% confluence in 100 mm cell culture dishes and incubated overnight.
(§2) Western blot analysis. Cellular extracts were prepared and quantified by BCA protein assay kit (Pierce, Rockford, Ill.) as previously described (Sippel et al., 2003). 30-50 μg of denatured proteins from each sample underwent electrophoresis on a SDS-polyacrylamide gel and transferred to a nitrocellulose membranes (Schleicher and Schuell, Keene, N.H.). Membranes were blocked for 1 hr in milk solution (1×PBS, 5% non-fat dry milk, 0.05% Tween-20) and then incubated at 4° C. overnight with primary antibodies. The following primary antibody dilutions were used: phospho-ERK 1/2 (1:1,000); phospho-MEK (1:1,000); phospho-Raf-1 (Serine338) (1:1,000); p21 and p18, (1:1,000); (Cell Signal Technology, Beverly, Mass.), Chromogranin A (1:2,000; Zymed Laboratories, San Francisco, Calif.); MASH-1 (1:1000, BD Pharmingen) and G3PDH (1:10,000; Trevigen, Gaithersburg, Md.). After primary antibody incubation, membranes were washed 3×5 min in PBS-T wash buffer (1×PBS, 0.05% Tween 20). Then the membranes were incubated with either 1:2,000 dilution of goat anti-rabbit or goat anti-mouse secondary antibody (Cell Signal Technology, Beverly, Mass.) depending on the source of the primary antibody for 1 hr at room temperature. Membranes were washed 3×5 min in PBS-T wash buffer and developed by Immunstar™ HRP (Bio-Rad Laboratories, Hercules, Calif.) according to the manufacturer's directions. For the detection of hASH1 protein, membranes were developed with SuperSignal West Femto chemiluminescence reagent (Pierce).

[4] = test system: Raf-1/MEK/ERK; test: Western analysis of Raf-1 pathway activation, H727 cells; type: cell-based, human
Method: as §1, §2

[5] = test system: Chromogranin A; test: Western analysis of CgA, BON cells; type: cell-based, human; conditions: 20 to 100 μM, 2 days
Method: (§3) ZM 336372 treatment. H727 and BON cells were plated at 50-60% confluence in 100 mm cell culture dishes and incubated overnight.
as §2, with “Membranes were washed 3×5 min in PBS-T wash buffer and developed by Immunstar™ HRP (Bio-Rad Laboratories, Hercules, Calif.) according to the manufacturer's directions. For the detection of hASH1 protein, membranes were developed with SuperSignal West Femto chemiluminescence reagent (Pierce).” left out

[6] = test system: p18; test: Western analysis of cell cycle inhibitor p18, H727 cells; type: cell-based, human; conditions: 20 μM and 100 μM, 2 days
Method: as §3
as §2, with “Membranes were washed 3×5 min in PBS-T wash buffer and developed by Immunstar™ HRP (Bio-Rad Laboratories, Hercules, Calif.) according to the manufacturer's directions. For the detection of hASH1 protein, membranes were developed with SuperSignal West Femto chemiluminescence reagent (Pierce).” left out

[7] = Drug toxicity assay, propidium iodide exclusion, H727 cells; type: cell-based, human; conditions: human, 500 μM, 2 days, compared to native H727 cells, read-out: viable cells by PI exclusion
Method: (§4) Drug Toxicity Assay. Briefly, cells were trypsinized and plated in a 6-well plate at 1-2×10^6 in triplicate and allowed to adhere overnight. […] As a control, DMSO was added. After incubation, the media was removed and cells were trypsinized and added to removed media. Cells were incubated on ice and 2.5 μg/ml Propidium Iodide (Sigma, St. Louis, Mo.) was added five minutes before flow cytometry (Ballestrero et al., 2004). Data was acquired using a FACSCalibur benchtop flow cytometer (Becton Dickenson, San Jose, Calif.) using CellQuest acquisition and analysis software.

[8] = test system: H727 cells; test: as above; type: cell-based, human
Method: as §4

[9] = test system: HepG2 cells, a hepatocellular cancer cell line; test: cell morphology after 9-day treatment, HepG2 cells; type: cell-based
Excerpt: (§5) The results were assay using standard MTT, Western blot and cytoxocity assays.

[10] = test system: HT-29 cells, a colon cancer cell line; test: cell morphology after 9-day treatment, HT-29 cells; type: cell-based
Excerpt: as §5

[11] = test system: Panc-1 cells; test: cell morphology after 9-day treatment, Panc-1 cells; type: cell-based; conditions: Panc-1, 100 μM, 9-day cycle
Excerpt: as §5

[12] = test system: MiaPaCa-2; test: cell morphology after 9-day treatment, MiaPaCa-2 cells; type: cell-based
Excerpt: as §5

[13] = test system: HepG2; test: HepG2 MTT Assay; type: cell-based; conditions: HepG2, three concentrations
Method: FIG. 18—HepG2 MTT Assay. The MTT assay is a laboratory test for measuring cellular proliferation (cell growth). MTT is added to a cell culture and is modified into a dye by enzymes associated with metabolic activity in a live cell. MTT is short for 3-(4,5-dimethylthiazol-2-yl)-2,5-diphenyltetrazolium bromide.
as §5

[14] = test system: HT-29; test: HT-29 MTT Assay; type: cell-based; conditions: HT-29, varying concentrations
[15] = test system: MiaPaCa-2; test: MiaPaCa-2 MTT Assay; type: cell-based; conditions: MiaPaCa-2, three concentrations
[16] = test system: p-MAPK; test: Western blot of p-MAPK, MiaPaCa-2 cells; type: cell-based; conditions: all concentrations tested
Excerpt: as §5

[17] = test system: H727 cells
Method: (§6) Cells tested (H727 and BON) were harvested by trypsinization and plated at a cell density of 3,000 cells/well of each microtiter plate. Cells were grown for 4 hrs at 37° C., with 5% CO2 in a humidified incubator to allow cell attachment to occur before compound addition. […] 10 μl of each compound stock was added to duplicate microtiter plates for each cell line. The final concentration of DMSO in all wells was 1%. To test 200 μM, 2% DMSO was added to each well. Data was compared to the effect of 2% DMSO. All compounds were tested in duplicate. Cells were incubated with the test compounds for 72 hrs before reading the assay. Then processing and calculation were performed according to manufacturer's directions for Cell Titer Glo Assay (Promega, Madison, Wis.).

[18] = test system: BON cells
Method: as §6

Cc1ccc(NC(=O)c2cccc(N(C)C)c2)cc1NC(=O)c1ccc(O)cc1 [ZM336372, N-[5-(dimethyl-aminobensamido)-2-methylphenyl]-4-hydroxybenzamide]
H727 cell proliferation (MTT) [1]: clear suppression of growth; also recorded: growth suppressed; also recorded: inhibited | growth of TT cells (MTT) [2]: clear suppression of growth | phosphorylated Raf-1 at serine 338 (pRaf-1) ([3]; 20 μM and 100 μM): dose dependent increases | phosphorylated ERK 1/2 (pERK, pMAPK) ([3]; 20 to 100 μM): increased phosphorylation of both MEK and MAPK; also recorded: strong activation of ERK 1/2 and MEK 1/2; also recorded: increasing phosphorylated MEK and MAP kinase; also recorded: dose dependent increases | phosphorylated MEK 1/2 (pMEK) ([3]; 20 to 100 μM): increased phosphorylation of both MEK and MAPK; also recorded: strong activation of ERK 1/2 and MEK 1/2; also recorded: increasing phosphorylated MEK and MAP kinase; also recorded: dose dependent increases | phosphorylated ERK 1/2 (pERK, pMAPK) ([4]; 20 μM and 100 μM, 2 days): elevated phosphorylated MAPK; also recorded: activation of MEK 1/2 and ERK 1/2; also recorded: dose dependent increases | phosphorylated MEK 1/2 (pMEK) ([4]; 20 μM and 100 μM, 2 days): activation of MEK 1/2 and ERK 1/2; also recorded: dose dependent increases | phosphorylated Raf-1 at serine 338 (pRaf-1) ([4]; 20 μM and 100 μM, 2 days): phosphorylated at serine 338; also recorded: dose dependent increases | phosphorylated MEK 1/2 over time ([4]; 100 μM, days 2, 4 and 6): prolonged; also recorded: greater than controls out to 6 days | CgA (chromogranin) level [5]: decreased secretion of chromogranin; also recorded: reduction in both CgA and hASH1; also recorded: decreasing expression of chromogranin at higher concentrations; also recorded: dose dependent decrease | p18 expression [6]: induced; also recorded: significant induction | viability at 2 days, 500 µM [7]: 40 to 50% | cytolysis ([8]; 20-100 μM): less than 20% | viability by PI exclusion ([8]; 20 to 100 μM, 2 days, compared to DMSO): significant viability was maintained | cell death ([9]; HepG2, 100 μM, 9-day cycle): significant cell death | cell growth in culture ([9]; HepG2, 50 microM, day 9, versus DMSO control): clear difference in cell growth | cytopathology ([9]; HepG2, low concentrations, 9-day cycle): cytopathology at low concentrations | cell death ([10]; HT-29, 100 μM, 9-day cycle): significant cell death | number of cells in culture ([10]; HT-29, 50 microM, day 9, versus control): dramatic difference in the number of cells present at day 9 | cytopathology ([10]; HT-29, low concentrations, 9-day cycle): cytopathology at low concentrations | cell death [11]: significant cell death | cell death ([12]; MiaPaCa-2, 100 μM, 9-day cycle): significant cell death | cell numbers in culture ([12]; MiaPaCa-2, 100 microM, day 9): dramatic decrease in cell numbers | cellular proliferation (MTT) [13]: effects at low concentrations; also recorded: reduction in cellular proliferation | cellular proliferation (MTT) [14]: effects at low concentrations; also recorded: effective at decreasing cellular proliferation | cellular proliferation (MTT) [15]: inhibition at the highest concentration; also recorded: reduction of cellular proliferation | p-MAPK level [16]: increase in p-MAPK following treatment at all concentrations tested | IC50 (cytotoxicity) [17]: did not produce enough cellular cytotoxicity to estimate an IC50 | IC50 (cytotoxicity) [18]: did not produce enough cellular cytotoxicity to estimate an IC50

Source: US20060025485A1, “Hydroxybenazamide compounds for treatment of cancer” (priority 2004, published 2006)
